Assay results published in patent US10463590B1, “Antiplaque and dental health oral formulation” (priority 2018, dated 2019).

Assays:
Format in all cases: cell-based
[1] = test system: biofilm of Streptococcus mutans and Streptococcus sorbinus; experiment: Preventive effect on biofilm formation, crystal violet staining assay after 24 h; conditions: 10 μg/ml amoxicillin (FIG. 7C)
Protocol: (§1) Two oral Streptococcus species, i.e., Streptococcus mutans AU159 strain and Streptococcus sorbinus SL1 strain, obtained from the American Type Culture Collection (Manassas, Va.), were tested in their two morphological forms: cocci planktonic form and biofilm. The stocks of both species were cultured in commonly used conditions, i.e., BHI broth (Remel, San Diego, Calif.) without antibiotics at 37° C. with 5% CO2, in sterile two-position cap 5 ml polypropylene test tubes.
Preventive effect of the test mix against biofilm of Streptococcus mutans and Streptococcus sorbinus was evaluated by the commonly used crystal violet (CV) staining method, according to guidance of American Society for Microbiology to establish MBFC (Minimal Biofilm Formation Concentration) value. Briefly, 1×10^7 CFU/ml from homogeneous bacterial culture in BHI broth containing 1% sucrose, as a standard approach, was inoculated into saliva-coated 96-well plates and supplemented with the test mix. Control wells were treated with DMSO (i.e., 0.1-0.4% v/v) alone or amoxicillin (i.e., 10 μg/ml). All plates were then incubated at 37° C. with 5% CO2 for 24 h. […] The biofilms were carefully washed three times with 1×PBS (phosphate-buffered saline), and 200 μl of methanol was added to each well to extract a dye which was measured at 595 nm using a spectrophotometer (Molecular Device, Spectra Max 340). […]

[2] = test system: pre-existing biofilm of Streptococcus mutans and Streptococcus sorbinus; experiment: Pre-formed biofilm killing (biocidal) effect, alamar Blue assay after 24 h; conditions: 500 μg/ml amoxicillin (FIG. 7E)
Protocol: as §1
Qualitative and quantitative efficacy of the test mix against biofilm of Streptococcus mutans and Streptococcus sorbinus was evaluated by the commonly used crystal violet (CV) staining method supported by alamarBlue staining assay (where resazurin, a non-fluorescent indicator dye, is converted to bright red-fluorescent resorufin via the reduction reactions of metabolically active cells and the amount of fluorescence produced is proportional to the number of living cells) for evaluating cellular health, according to guidance of American Society for Microbiology and manufacturer's protocol to establish MBEC (Minimal Biofilm Eradication Concentration) and MBBC (Minimal Biofilm Biocidal Concentration) values. Briefly, 1×10^7 CFU/ml from homogeneous bacterial culture in BHI broth containing 1% sucrose, as a standard approach, was inoculated into saliva-coated 96-well plates and supplemented with the test mix. […]

[3] = test system: Streptococcus mutans and Streptococcus sorbinus; experiment: Bacteriostatic effect, broth macro-dilution assay (OD600) after 24 h; conditions: 10 μg/ml amoxicillin (FIG. 7A)
Protocol: as §1
Growth inhibition of Streptococcus mutans and Streptococcus sorbinus was tested using standard macro-dilution method according to guidance of American Society for Microbiology to establish MIC (Minimal Inhibitory Concentration) value. Briefly, sterile 3 ml test two-position capped tubes containing 1 ml BHI broth, supplemented with the test mix was inoculated with 1×10^7 CFU/ml of the homogenous bacterial suspension. The tubes were then incubated at 37° C. with 5% CO2 and growth inhibition as a decrease in the optical density (OD600) was measured after 24 h. The entire experiment was repeated three times for each strain. Control cultures were treated with DMSO (i.e., 0.1-0.4% v/v) alone or amoxicillin (i.e. 10 μg/ml).

[4] = test system: Streptococcus mutans and Streptococcus sorbinus; experiment: Bactericidal effect, broth macro-dilution combined with plating assay after 24 h; conditions: 10 μg/ml amoxicillin (FIG. 7B)
Protocol: as §1
The plates were then incubated at 37° C. with 5% CO2 and bacterial re-growth was assessed after 24 h. The entire experiment was repeated three times for each strain. Control cultures were treated with DMSO (i.e., 0.1-0.4% v/v) alone or amoxicillin (i.e. 10 μg/ml).

What does the source list for `CC1(C)S[C@@H]2[C@H](NC(=O)[C@H](N)c3ccc(O)cc3)C(=O)N2[C@H]1C(=O)O` [amoxicillin]?
preventive effect on biofilm formation [1]: approximately 99%; biocidal effect on pre-existing biofilm [2]: approximately 20%; bacteriostatic effect [3]: 100%; bactericidal effect [4]: 100%
